# Data reported in patent US20130143840A1, “HEPARAN SULFATE REPLACEMENT THERAPY” (priority 2010, published 2013).
# Entries after “also recorded” stand apart in the source; their conditions may differ.
# Columns and labels:
# [1] = system: isolated BALB/c islet beta cells; assay: Culture-induced death of isolated islet beta cells, Sytox green uptake by flow cytometry; format: cell-based, mouse; conditions: for Viability (%): untreated control 25-30% viability
# Description: (§1) Pancreatic islets were isolated from non-diabetic BALB/c mice and dissociated into a single cell suspension (>90% beta cells) by Dispase digestion. Following 2 days culture in standard tissue culture medium 62% of the beta cells were dead, based on uptake of the fluorescent DNA binding dye, Sytox green (FIG. 4, upper panels). […] In the presence of heparin the highly viable Calcein^+, PI^−population of beta cells was increased from 25% to 86%, the dead population. (Calcein^−, PI^+) reduced from 18% to 1% and the apoptotic population (Calcein^+, PI^+) improved from 52% to 6%. […] Table 1 provides a statistical analysis of the data showing that heparin, highly sulfated heparan sulfate (HS^hi) and PI-88 can protect mouse beta cells from culture-induced cell death.
# (§2) The impact of heparin treatment on beta cell viability was also independent of the source of heparin (FIG. 8a) and, based on viable cell numbers, was not observed after 1 h but did occur after continuous culture with heparin for 1-2 days (FIG. 8b).
# [2] = molecular target: T1, heparanase (Homo sapiens, UniProt Q9Y251); assay: Heparanase inhibitory activity (Freeman and Parish 1997 assay); format: biochemical
# T1 sequence (Q9Y251 158-543 limits assumed): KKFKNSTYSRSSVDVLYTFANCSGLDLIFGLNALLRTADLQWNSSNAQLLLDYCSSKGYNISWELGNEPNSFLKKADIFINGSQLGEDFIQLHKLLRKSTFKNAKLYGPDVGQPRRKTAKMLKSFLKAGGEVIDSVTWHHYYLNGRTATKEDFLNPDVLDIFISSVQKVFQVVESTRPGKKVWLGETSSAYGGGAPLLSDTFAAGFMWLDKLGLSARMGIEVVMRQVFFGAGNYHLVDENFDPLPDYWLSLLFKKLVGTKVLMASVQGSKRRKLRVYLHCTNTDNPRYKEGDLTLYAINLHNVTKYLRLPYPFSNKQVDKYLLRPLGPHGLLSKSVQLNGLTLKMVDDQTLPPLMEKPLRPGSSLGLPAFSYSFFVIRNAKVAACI
# T1 sequence (Q9Y251 36-109 limits assumed): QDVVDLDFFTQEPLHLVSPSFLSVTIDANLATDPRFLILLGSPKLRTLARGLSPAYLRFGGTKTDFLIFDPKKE
# [3] = system: islet beta cells; assay: Hydrogen peroxide (ROS)-induced beta cell death after culture, Sytox green uptake; format: cell-based, mouse; conditions: for Resistance to H2O2 (ROS): then 30% H2O2 for 5 min; for ability to retain beta cell viability and induce ROS resistance (in words): summary of Table 3
# [4] = system: islet beta cells; assay: Insulin content of beta cells from islets isolated in the presence of heparin, flow cytometry; format: cell-based, mouse; conditions: heparin 50 μg/ml in the islet isolation medium
# Procedure: This deficiency in intra-islet heparan sulfate persisted for at least 3 days after transplantation of the islets into histocompatible recipients, normal heparan sulfate levels only being regained 7 days post-transplantation (FIG. 13). Inclusion of heparin (50 μg/ml) in the islet isolation medium improved the insulin content of the islet beta cells 2-fold (FIG. 14).
# [5] = system: islet beta cells; assay: Intracellular insulin content of cultured beta cells; format: cell-based, mouse; conditions: 50 μg/ml, 2 days culture
# Procedure: Comparison of the ability of HS^hi (50 μg/ml) and undersulfated HS(HS^lo, 50 μg/ml) to protect beta cells from 2 day culture-induced cell death, as shown by Sytox green uptake (upper panels). Lower panels depict the intracellular insulin content (green histograms) of the different preparations of cultured islet cells. Serum control (red histograms) and islet cell autofluorescence (black histograms) are also shown. 85-88% of the cultured islet cells were insulin^+ beta cells.
# as §2
# [6] = system: isolated BALB/c islet beta cells; assay: Beta cell viability by Calcein-AM / propidium iodide staining, flow cytometry; format: cell-based, mouse; conditions: 50 μg/ml, 2 days culture
# Description: as §1
# [7] = system: isolated islets; assay: Heparan sulfate of islets isolated with free radical scavengers, Alcian blue staining; design: species or system mouse; conditions: combined: donors pretreated with BHA 120 mg/kg i.p. and islets isolated in presence of DMTU 50 mM
# Description: Transplantation of pancreatic islets is a well established therapeutic approach for treating Type I diabetes in animals and patients. However, recovery of fully functional islets is crucial if successful transplantation is to occur, irrespective of the problems associated with the recipient's immune response against the allograft. Based on the data described herein, preservation of intra-islet heparan sulfate during islet isolation is an important factor in ensuring that normal islet function is retained. […] In fact, following isotransplantation intra-islet heparan sulfate was still depleted 3 days after transplantation but returned to normal levels 7 days post-transplant (FIG. 13). […] These observations indicate that a combination of heparan sulfate and free radical scavengers could be used to preserve beta cell heparan sulfate during islet isolation.
# [8] = 50 μg/ml, 2 days culture, Sytox green
Molecule,Hpse inhibition [2],"Viability (%) [1, 8] [%]","Resistance to H2O2 (ROS) ([3]; 50 μg/ml, 2 days culture)",other results
Chondroitin sulfate B,−,46,−,
Heparin,,,,"insulin content of islet beta cells, increase over control [4]: 2 fold; change in the insulin content of cultured beta cells (in words) [5]: little or no change; beta cell survival at 5 μg/ml (in words) ([1]; 5 μg/ml, 2 days culture): equally active; also recorded: preserved beta cell survival; protection from culture-induced cell death / beta cell survival (in words) [1, 8]: dramatically enhanced; % dead beta cells in culture (Sytox green) ([1]; heparin 50 μg/ml co-culture, controls 72.5% dead): 5.3%; dead population (Calcein−, PI+) ([6]; control 18%): 1%; Calcein+, PI− population of beta cells (highly viable) ([6]; control 25%): 86%; apoptotic population (Calcein+, PI+) ([6]; control 52%): 6%; % beta cells Calceln − PI− (cell debris) ([6]; n = 3-5/group): 9.75 ± 1.9%; % viable after hydrogen peroxide treatment ([3]; 2 days culture with 50 μg/ml): 95%; % cell death following hydrogen peroxide treatment ([3]; heparin 50 μg/ml co-culture, freshly isolated cells 96.1% cell death): 5.0%"
"CNC(=S)NC [DMTU, dimethylthiourea]",,,,Alcian blue staining for heparan sulfate of isolated islets (in words) [7]: increased
"COc1ccc(O)c(C(C)(C)C)c1 [BHA, butylated hydroxyanisole]",,,,Alcian blue staining for heparan sulfate of isolated islets (in words) [7]: increased
Bis-lactobionic acid amide (C12 link),,,−,"heparanase inhibition (in words) [2]: strong to very strong heparanase inhibitors; protection from peroxide (ROS)-induced cell death / induction of ROS resistance (in words) ([3]; 50 μg/ml, 2 days culture): essentially unable to induce islet beta cells to become ROS resistance"
O-α-D-Glucopyranosyl-{(1→4)—O-α-D-glucopyranosyl}4-(1→4)-D-glucopyranose sulfate [Maltohexaose sulfate],+++,,++++,"ability to retain beta cell viability and induce ROS resistance (in words) ([3]; 50 μg/ml, 2 days culture): induced high beta cell viability and ROS resistance"

# Second part, led by results:
Hpse inhibition [2],Molecule,"Viability (%) [1, 8] [%]","Resistance to H2O2 (ROS) ([3]; 50 μg/ml, 2 days culture)",other results
−,Chondroitin sulfate C,32,−,
+++,Maltopentaose sulfate,,++++,"ability to retain beta cell viability and induce ROS resistance (in words) ([3]; 50 μg/ml, 2 days culture): induced high beta cell viability and ROS resistance"
±,Chondroitin sulfate D,32,−,
−,Chitosan,30,−,
±,Chondroitin sulfate A,50,−,
++,Dextran sulfate,,++++,"ability to retain beta cell viability and induce ROS resistance (in words) ([3]; 50 μg/ml, 2 days culture): induced high beta cell viability and ROS resistance"
